Experimental data as given in patent US20180186742A1, “PICOLINAMIDES AS FUNGICIDES” (Dow AgroSciences LLC, priority 2017, published 2018).
Like-named read-outs stand apart in the source and are kept apart here.

What was measured:
Format in all cases: in vivo
[1] = system: Zymoseptoria tritici; test: Leaf blotch of wheat (SEPTTR), disease control on wheat seedlings; settings: low volume application at 121.5 g/H
Method in brief: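 Z. tritici spores were inoculated onto wheat seedlings (Yuma, first leaf emerged) either before or after treatment. Treatment was an automated spray to run-off of acetone/Triton X-100 water solutions, or a track spray of EC formulations with 0.1% Trycol 5941. Plants were held in dew chambers at 20 °C and then a greenhouse at 20 °C. First-leaf severity (0–100%) was converted to percent control against untreated plants.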

[2] = system: Puccinia triticina; test: Wheat brown rust (PUCCRT), disease control on wheat seedlings; settings: low volume application at 121.5 g/H
Method in brief: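 Compounds in acetone, diluted with nine volumes of water containing 110 ppm Triton X-100, sprayed to run-off on first-leaf Yuma wheat seedlings; track-spray tests used EC formulations with 0.1% Trycol 5941. Puccinia triticina spores applied before or after treatment. Overnight dark dew room at 22° C, 100% humidity, then greenhouse at 24° C.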

[3] = system: Alternaria solani; test: Tomato early blight (ALTESO), disease control on tomato plants; settings: 1DP test at 100 ppm, read-out: ALTESO disease control rating
Description: Technical grades of materials were dissolved in acetone, which were then mixed with nine volumes of water containing 110 ppm Triton X-100. The fungicide solutions were applied onto wheat seedlings using an automated booth sprayer to run-off. All sprayed plants were allowed to air dry prior to further handling. All fungicides were evaluated using the aforementioned method for their activity vs. all target diseases, unless stated otherwise. Wheat leaf blotch and brown rust activity were also evaluated using track spray applications, in which case the fungicides were formulated as EC formulations, containing 0.1% Trycol 5941 in the spray solutions. Tomato plants (variety Outdoor Girl) were propagated in soil-less Metro mix, with each pot having one plant, and used when 12 to 14 days old. Test plants were inoculated with an aqueous spore suspension of Alternaria solani 24 hr after fungicide treatments. After inoculation the plants were kept in 100% relative humidity (one day in a dark dew chamber followed by two to three days in a lighted dew chamber at 20° C.) to permit spores to germinate and infect the leaf. The plants were then transferred to a growth room at 22° C. for disease to develop. Fungicide formulation, application and disease assessment on the sprayed leaves followed the procedures as described in the Example A.

[4] = system: Cercospora beticola; test: Leaf spot of sugar beets (CERCBE), disease control on sugar beet plants; settings: 1DP test at 100 ppm, read-out: CERCBE disease control rating
Description: Technical grades of materials were dissolved in acetone, which were then mixed with nine volumes of water containing 110 ppm Triton X-100. The fungicide solutions were applied onto wheat seedlings using an automated booth sprayer to run-off. All sprayed plants were allowed to air dry prior to further handling. All fungicides were evaluated using the aforementioned method for their activity vs. all target diseases, unless stated otherwise. Wheat leaf blotch and brown rust activity were also evaluated using track spray applications, in which case the fungicides were formulated as EC formulations, containing 0.1% Trycol 5941 in the spray solutions. Sugar beet plants (variety HH88) were grown in soil-less Metro mix and trimmed regularly to maintain a uniform plant size prior to test. Plants were inoculated with a spore suspension 24 hr after fungicide treatments. Inoculated plants were kept in a dew chamber at 22° C. for 48 hr then incubated in a greenhouse set at 24° C. under a clear plastic hood with bottom ventilation until disease symptoms were fully expressed. Fungicide formulation, application and disease assessment on the sprayed leaves followed the procedures as described in the Example A.

[5] = system: Pseudoperonospora cubensis; test: Cucumber downy mildew (PSPECU), disease control on cucumber seedlings; settings: 24 h, 1DP (1 Day Protectant) test at 100 ppm
Description: Technical grades of materials were dissolved in acetone, which were then mixed with nine volumes of water containing 110 ppm Triton X-100. The fungicide solutions were applied onto wheat seedlings using an automated booth sprayer to run-off. All sprayed plants were allowed to air dry prior to further handling. All fungicides were evaluated using the aforementioned method for their activity vs. all target diseases, unless stated otherwise. Wheat leaf blotch and brown rust activity were also evaluated using track spray applications, in which case the fungicides were formulated as EC formulations, containing 0.1% Trycol 5941 in the spray solutions. Cucumber seedlings (variety Bush Pickle) were grown in soil-less Metro mix, with one plant per pot, and used in the test when 12 to 14 days old. Plants were inoculated with a spore suspension 24 hr following fungicide treatments. Test plants were inoculated with an aqueous spore suspension of Pseudoperonospora cubensis 24 hr after fungicide treatments. After inoculation the plants were kept in a dew room at 22° C. with 100% relative humidity for 24 hr to permit spores to germinate and infect the leaf. The plants were then transferred to a greenhouse set at 20° C. until disease was fully expressed. Fungicide formulation, application and disease assessment on the sprayed leaves followed the procedures as described in the Example A.

[6] = system: Magnaporthe grisea; Anamorph: Pyricularia oryzae; test: whole plant or invertebrate; settings: 24 h, read-out: PYRIOR Disease Control
[7] = 24 h, 1 Day Protectant, read-out: SEPTTR disease control, 1DP, LV activity
[8] = 72 h, 3 Day Curative, read-out: SEPTTR disease control, 3DC, LV activity
[9] = 24 h, 1 Day Protectant, read-out: PUCCRT disease control, 1DP, LV activity
[10] = 72 h, 3 Day Curative, read-out: PUCCRT disease control, 3DC, LV activity
[11] = 24 h, 1 Day Protectant, wheat leaf blotch, read-out: SEPTTR 1DP disease control, LV activity
[12] = 72 h, 3 Day Curative, wheat leaf blotch, read-out: SEPTTR 3DC disease control, LV activity
[13] = 24 h, 1 Day Protectant, wheat brown rust, read-out: PUCCRT 1DP disease control, LV activity
[14] = 72 h, 3 Day Curative, wheat brown rust, read-out: PUCCRT 3DC disease control, LV activity

SMILES	pest or weed control at 121.5 g/ha [1, 7] [%]	pest or weed control at 121.5 g/ha [1, 8] [%]	pest or weed control at 121.5 g/ha [2, 9] [%]	pest or weed control at 121.5 g/ha [2, 10] [%]	pest or weed control at 100 ppm [3] [%]	pest or weed control at 100 ppm [4] [%]	pest or weed control at 100 ppm [5] [%]	pest or weed control at 100 ppm [6] [%]	pest or weed control at 121.5 g/ha [1, 11] [%]	pest or weed control at 121.5 g/ha [1, 12] [%]	pest or weed control at 121.5 g/ha [2, 13] [%]	pest or weed control at 121.5 g/ha [2, 14] [%]
COc1ccnc(C(=O)N[C@@H](C)C(=O)O[C@@H](C)[C@H](c2ccc(F)cc2C)C(C)C)c1OC(=O)C(C)C [Compound 216]	> 80	> 80	> 80	> 80	< 80	> 80	< 80	> 80	–	–	–	–
CCOC(=O)Oc1c(OC)ccnc1C(=O)N(C(=O)OCC)[C@@H](C)C(=O)O[C@@H](C)[C@H](c1ccc(F)cc1C)C(C)C [Compound 371]	–	–	–	–	< 80	> 80	< 80	< 80	–	–	–	–
COc1ccnc(C(=O)N[C@@H](C)C(=O)O[C@@H](C)[C@H](c2ccc(F)cc2C)C(C)C)c1OC(=O)CC(C)C [Compound 356]	> 80	> 80	> 80	< 80	> 80	> 80	< 80	< 80	–	–	–	–
CCC(=O)Oc1c(OC)ccnc1C(=O)N[C@@H](C)C(=O)O[C@@H](C)[C@H](c1ccc(F)cc1C)C(C)C [Compound 357]	> 80	> 80	> 80	> 80	< 80	> 80	< 80	< 80	–	–	–	–
CCOC(=O)Oc1c(OC)ccnc1C(=O)N[C@@H](C)C(=O)O[C@@H](C)[C@H](c1ccc(F)cc1C)C(C)C [Compound 372]	–	–	–	–	> 80	> 80	> 80	< 80	–	–	–	–
COc1ccnc(C(=O)N[C@@H](C)C(=O)O[C@@H](C)[C@H](c2ccc(F)cc2C)C(C)C)c1OC(=O)C1CCCC1 [Compound 354]	> 80	> 80	> 80	< 80	< 80	> 80	> 80	< 80	–	–	–	–
COc1ccnc(C(=O)N[C@@H](C)C(=O)O[C@@H](C)[C@H](c2cccc(C)c2C)C(C)C)c1OC(C)=O [Compound 363]	< 80	< 80	> 80	> 80	< 0	> 80	< 0	> 80	–	–	–	–
COc1ccnc(C(=O)N[C@@H](C)C(=O)O[C@@H](C)[C@H](c2cccc(F)c2C)C(C)C)c1OC(C)=O [Compound 359]	< 80	> 80	> 80	> 80	< 80	> 80	< 80	> 80	–	–	–	–
COc1ccnc(C(=O)N[C@@H](C)C(=O)O[C@@H](C)[C@H](c2ccc(F)cc2C)C(C)C)c1OC(=O)OC(C)C [Compound 373]	–	–	–	–	< 80	> 80	< 80	< 80	> 80	> 80	> 80	< 80
CCC(CC)[C@@H](c1ccc(F)cc1C)[C@H](C)OC(=O)[C@H](C)NC(=O)c1nccc(OC)c1OC(C)=O [Compound 187]	> 80	> 80	> 80	< 80	< 80	> 80	< 0	> 80	–	–	–	–
COc1ccnc(C(=O)N[C@@H](C)C(=O)O[C@@H](C)[C@H](c2ccc(F)cc2C)C(C)C)c1OC(=O)C(C)(C)C [Compound 374]	–	–	–	–	< 80	> 80	< 80	< 80	> 80	> 80	> 80	< 80
COc1ccnc(C(=S)N[C@@H](C)C(=O)O[C@@H](C)[C@H](c2ccc(F)cc2C)C(C)C)c1OC(C)=O [Compound 219]	< 80	> 80	> 80	> 80	< 80	> 80	< 80	> 80	–	–	–	–
COc1cc[n+]([O-])c(C(=O)N[C@@H](C)C(=O)O[C@@H](C)[C@H](c2ccc(F)cc2C)C(C)C)c1O [Compound 218]	> 80	< 80	> 80	< 80	< 0	> 80	< 0	> 80	–	–	–	–
COc1ccnc(C(=O)N[C@@H](C)C(=O)O[C@@H](C)[C@H](c2ccccc2C)C(C)C)c1OC(C)=O [Compound 364]	–	–	–	–	< 80	> 80	< 80	> 80	< 80	< 80	> 80	< 80
COc1ccnc(C(=O)N[C@@H](C)C(=O)O[C@@H](C)[C@H](c2ccccc2C)C(C)C)c1OC(=O)C(C)C [Compound 375]	–	–	–	–	< 80	> 80	< 80	> 80	< 80	> 80	> 80	> 80
